Data taken from ChEMBL document CHEMBL1157632, “Discovery of dipeptides with high affinity to the specific binding site for substance P1-7” (J Med Chem, 2010).
Activity calls are given as the source filed them. No cut-off for these calls is given here. Peptide text beside a SMILES is read from it.

Target: Neuromedin-K receptor (NK-3) (Homo sapiens) (UniProt P29371)
Experiment: Displacement of [MePhe7]-NKB from human recombinant NK3 receptor at 10 uM

Sequence of Neuromedin-K receptor (NK-3) (Homo sapiens) (P29371 whole entry, looked up): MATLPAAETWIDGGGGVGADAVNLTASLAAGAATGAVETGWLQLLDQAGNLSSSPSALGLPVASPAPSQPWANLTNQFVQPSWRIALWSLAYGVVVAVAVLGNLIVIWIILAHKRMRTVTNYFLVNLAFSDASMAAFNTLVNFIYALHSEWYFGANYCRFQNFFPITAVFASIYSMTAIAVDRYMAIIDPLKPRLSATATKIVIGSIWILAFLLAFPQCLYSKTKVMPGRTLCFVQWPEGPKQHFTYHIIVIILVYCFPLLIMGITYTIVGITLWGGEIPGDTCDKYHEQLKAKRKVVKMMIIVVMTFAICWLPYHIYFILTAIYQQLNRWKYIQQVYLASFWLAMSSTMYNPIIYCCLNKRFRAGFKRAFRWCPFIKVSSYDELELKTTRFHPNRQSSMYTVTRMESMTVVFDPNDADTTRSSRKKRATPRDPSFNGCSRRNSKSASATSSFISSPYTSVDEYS

- Activity: inactive
SMILES: NC(=O)[C@H](Cc1ccccc1)NC(=O)[C@@H](N)Cc1ccccc1 (H-Phe-Phe-NH2)
